Measurements as given in US20080275224A1, “Cyanoborate, Fluoroalkylphosphate, Fluoroalkylborate or Imide Dyes” (priority 2003, published 2008).
Values belong to the compound of their own block, whether it stands above or below them.

Assays:
[1] = Solubility in organic solvents (statements in the description)
[2] = Solubility investigations of the dyes prepared in accordance with Examples 31 to 34
[3] = physchem; conditions: water
[4] = acetonitrile, organic solvent or mixture, Solubility, CH3CN
[5] = dichloromethane, organic solvent or mixture, Solubility, CH2Cl2
[6] = ethanol, organic solvent or mixture, Solubility

Structure (SMILES): CC[N+](CC)=c1ccc2nc3c(cc(N)c4ccccc43)oc-2c1 [Nile Blue [B(CN)4]^−, Nile Blue as tetracyanoborate]
Solubility in benzene ([1]; listed as Nile Blue CAB): soluble
Solubility in dimethyl carbonate ([1]; listed as Nile Blue CAB): readily or very readily soluble

Structure (SMILES): CCN(CC)c1ccc2nc3ccc(/N=N/c4ccc(N(C)C)cc4)cc3[n+](-c3ccccc3)c2c1 [Janus Green [(CF3SO2)2N]^−]
Solubility in benzene [1]: soluble

Structure (SMILES): CCN(CC)c1ccc2nc3ccc(N=Nc4ccc(N(C)C)cc4)cc3[n+](-c3ccccc3)c2c1.[Cl-] [Janus Green Cl^−, Janus Green, reference compound]
Solubility in benzene [1]: insoluble

Structure (SMILES): Cc1cc2nc3cc(C)c(N)cc3[n+](-c3ccccc3)c2cc1N [Safranine O [B(CF3)4]^−, safranine O as tetrakis(trifluoromethyl)borate]
solubility [3]: < 10 µg/mL

Structure (SMILES): CN(C)c1ccc(C(=C2C=CC(=[N+](C)C)C=C2)c2ccc(N(C)C)cc2)cc1 [Crystal Violet [B(CF3)4]^−, Crystal Violet as tetrakis(trifluoromethyl)borate]
solubility ([2]; H2O): insoluble
solubility ([2]; Pentane): insoluble
solubility [2, 4]: > 5000 µg/mL
solubility [2, 5]: > 10000 µg/mL
solubility [2, 6]: > 10000 µg/mL

Continued, values first:

Solubility in benzene ([1]; listed as Nile Blue FAP): soluble
Solubility in dimethyl carbonate ([1]; listed as Nile Blue FAP): readily or very readily soluble
Structure (SMILES): CC[N+](CC)=c1ccc2nc3c(cc(N)c4ccccc43)oc-2c1 [Nile Blue [(C2F5)3PF3]^−] [Nile Blue as tris(pentafluoroethyl)trifluorophosphate]

Solubility in benzene [1]: insoluble
Solubility in dimethyl carbonate ([1]; listed as Nile Blue with hydrogensulfate as anion): insoluble
Structure (SMILES): CC[N+](CC)=c1ccc2nc3c(cc(N)c4ccccc43)oc-2c1 [Nile Blue Hydrogensulfate anion, Nile Blue hydrogensulfate, reference compound]

solubility ([2]; Pentane): insoluble
solubility [2, 4]: > 2000 µg/mL
solubility [2, 5]: > 5000 µg/mL
solubility [2, 6]: > 3000 µg/mL
solubility ([2]; water, Solubility, H2O): < 10 µg/mL
Solubility in benzene ([1]; listed as Nile Blue FAB): soluble
Solubility in dimethyl carbonate ([1]; listed as Nile Blue FAB): readily or very readily soluble
Structure (SMILES): CC[N+](CC)=c1ccc2nc3c(cc(N)c4ccccc43)oc-2c1 [Nile Blue [B(CF3)4]^−, Nile Blue as tetrakis(trifluoromethyl)borate]

Solubility in benzene ([1]; listed as Nile Blue Im): soluble
Solubility in dimethyl carbonate ([1]; listed as Nile Blue Im): readily or very readily soluble
Structure (SMILES): CC[N+](CC)=c1ccc2nc3c(cc(N)c4ccccc43)oc-2c1 [Nile Blue [(CF3SO2)2N]^−]
